These results are taken from ChEMBL document CHEMBL1137153, “Synthesis of 7 alpha- and 7 beta-spermidinylcholesterol, squalamine analogues” (2004).

In brackets after ≈: the same amount, converted by molar mass.

As a reminder, the MIC is the smallest concentration in the dilution series that meets the test's criterion for growth inhibition.

What all share (format): functional
In test [1] the test system is Candida albicans. The experiment in a line: Minimal inhibitory concentration against Candida albicans (strain CIP 1180-79) after 48 hr of incubation was evaluated. Conditions: CIP 1180-79, 48 h.
The subject of test [2] is Escherichia coli. Briefly: Minimal inhibitory concentration against Escherichia coli (strain 54127) after 48 hr of incubation was evaluated.
Test [3] deals with Staphylococcus aureus. The experiment in a line: Minimal inhibitory concentration against Staphylococcus aureus (strain CIP 54127) after 48 hr of incubation was evaluated. Conditions: CIP 54127, 48 h.
In test [4] the test system is Enterococcus hirae. The experiment in a line: Minimal inhibitory concentration against Enterococcus hirae (strain CIP 5855) after 48 hr of incubation was evaluated. The settings on record: CIP 5855, 48 h.
Test [5] concerns Saccharomyces cerevisiae. The experiment in a line: Minimal inhibitory concentration against Saccharomyces cerevisiae (strain ATC 28383) after 48 hr of incubation was evaluated.
The test system of test [6] is Candida albicans. The experiment in a line: Minimal inhibitory concentration against Candida albicans (strain CIP 1180-79) after 48 hr of incubation was evaluated; Range = 4 - 8 ug/mL. The settings on record: CIP 1180-79, 48 h.

Take `CC(C)CCC[C@@H](C)[C@H]1CCC2C3C(CC[C@@]21C)[C@@]1(C)CC[C@H](O)CC1=C[C@H]3NCCCNCCCCN` (stereo partly drawn): the MIC in test [1] came to 6.25 µg/mL (≈ 11.8 µM); in test [2], 6.25 µg/mL (≈ 11.8 µM); in test [3], 3.12 µg/mL (≈ 5.89 µM); in test [4], 3.12 µg/mL (≈ 5.89 µM); in test [5], 3.12 µg/mL (≈ 5.89 µM).

Consider `CC(C)CCC[C@@H](C)[C@H]1CCC2C3C(CC[C@@]21C)[C@@]1(C)CC[C@H](O)CC1=C[C@@H]3NCCCNCCCCN` (stereo partly drawn), for which the MIC in test [1] was 3.12 µg/mL (≈ 5.89 µM); in test [2] it was 3.12 µg/mL (≈ 5.89 µM); in test [3], 6.25 µg/mL (≈ 11.8 µM); in test [4] it was 6.25 µg/mL (≈ 11.8 µM); in test [5], 3.12 µg/mL (≈ 5.89 µM).

In the case of `CC(C)[C@@H](CC[C@@H](C)[C@H]1CC[C@H]2[C@@H]3[C@H](O)C[C@H]4C[C@@H](NCCCNCCCCN)CC[C@]4(C)[C@H]3CC[C@]12C)OS(=O)(=O)O` [SQUALAMINE], the MIC was greater than 100 µg/mL in test [2], 1.56 µg/mL (≈ 2.48 µM) in test [3] and 8 µg/mL (≈ 12.7 µM) in test [6].
